Measured values: PMC9293083 (Chemistry (Weinheim an Der Bergstrasse, Germany), 2021)

Assays:
pBR322 plasmid DNA = assay type: binding
A549 (lung carcinoma) [1] = conditions: read-out: IC50 A549; cited from earlier work
HeLa (cervix carcinoma) = conditions: read-out: IC50 HeLa; cited from earlier work
tubulin = assay type: cell-based, human
A549 cells = assay type: cell-based, human
[2] = tested on: lung mouse embryonic fibroblasts (LMEFs); assay type: cell-based; conditions: 10 μM, 22 h
A549 (lung carcinoma) [3] = tested on: A549 (lung carcinoma)

N.N.[Cl][Pt][Cl] [cisplatin, reference compound]
electrophoretic mobility of plasmid forms (pBR322 plasmid DNA): electrophoretic shift
IC50 (A549 (lung carcinoma) [1]): 6.45 ± 0.47 µM
IC50 (HeLa (cervix carcinoma)): 13.6 ± 0.99 µM

COC(=O)Nc1nc2ccc(C(=O)c3cccs3)cc2[nH]1 [nocodazole, reference compound]
tubulin depolymerization / microtubule disassembly (tubulin): notable microtubule disassembly

CN(C)c1ccc(-c2nc3ccccc3s2)cc1 [Me2N‐pbtH, 2‐(4‐dimethylaminophenyl)benzothiazole]
cellular internalization (intracellular green fluorescence) (A549 cells): successful internalization
colocalization with Golgi apparatus marker BODIPY TR C5 ceramide (A549 cells): most of the signal colocalized with the Golgi apparatus marker
time to bright green fluorescence (internalization) (A549 cells): 2 to 5 min
accumulation in endosomal/lysosomal compartments (LysoTracker) [2]: minor accumulation in the endosomal/lysosomal compartments
accumulation in mitochondria (MitoTracker) [2]: lack of accumulation in mitochondria
cytotoxic effects against A549 cells (A549 (lung carcinoma) [3]): did not show cytotoxic effects
